Test results taken from patent publication US6727237B2, “Inhibitors of bacterial NAD synthetase” (priority 1998, dated 2004).
≈ marks a conversion by molar mass, not a printed value. Where “and” joins values, the source holds several entries; their conditions need not be identical. Equal values may be shown once.

What was measured:
[1] = tested on: Staphylococcus epidermitis; assay: Bacterial growth inhibition screen in LB media (absorbance 595 nm), percent inhibition; conditions: S. epidermitis
[2] = tested on: Staphylococcus epidermitis; assay: Dose response of bacterial growth inhibition, MIC85; conditions: minimum inhibitory concentration to achieve 85% inhibition, S. epidermitis
[3] = target: T1, bacterial NAD synthetase enzyme (Bacillus subtilis, UniProt P08164); assay: biochemical; format: biochemical
T1 sequence (P08164 2-272 limits assumed): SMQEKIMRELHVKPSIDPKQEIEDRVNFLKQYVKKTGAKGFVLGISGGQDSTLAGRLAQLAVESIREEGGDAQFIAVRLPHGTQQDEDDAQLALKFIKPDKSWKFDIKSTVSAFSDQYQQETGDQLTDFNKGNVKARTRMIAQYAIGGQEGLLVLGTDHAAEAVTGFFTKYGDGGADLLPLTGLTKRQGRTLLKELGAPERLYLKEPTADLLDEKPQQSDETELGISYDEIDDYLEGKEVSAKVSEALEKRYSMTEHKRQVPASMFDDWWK

[4] = compound at 0.2 mM (Table 312A)

C[n+]1cc(C(=O)OCCCCCCn2ccc3cc(OCc4ccccc4)ccc32)cc2ccccc21 [Compound 827]
% Inhibition ([1]; concentration screened 10 uM): 95.86% | MIC85 [2]: 3.7 µM

C[N+](C)(C)c1cccc(C(=O)OCCCCCCCCn2ccc3cc(OCc4ccccc4)ccc32)c1 [Compound 809]
% Inhibition ([1]; concentration screened 10 uM): 99.81% | MIC85 [2]: 10 µM

CN(C)c1cccc(C(=O)OCCCCCCCn2ccc3cc([N+](=O)[O-])ccc32)c1 [Compound 839]
% Inhibition ([1]; concentration screened 10 uM): 99.35% | MIC85 [2]: 30 µM (≈ 12.7 µg/mL)

COc1ccc2c(ccn2CCCCCCCCOC(=O)c2cccc([N+](C)(C)C)c2)c1 [Compound 804]
% Inhibition ([1]; concentration screened 10 uM): 97.29% | MIC85 [2]: 30 µM

COC(=O)c1ccc2[nH]c(CCC[n+]3cccc4ccccc43)cc2c1 [Compound 486]
% Inhibition [3, 4]: 4.97% | % Inhibition ([1]; concentration screened 10 uM): 22.28%

c1ccc(Oc2ccc3[nH]c(CCCCCC[n+]4ccccc4)cc3c2)cc1 [Compound 351]
% Inhibition [3, 4]: 65.08% | % Inhibition ([1]; concentration screened 100 uM): 99.57%

O=[N+]([O-])c1cc([N+](=O)[O-])c2[nH]c(CCCCC[n+]3ccc4ccccc4c3)cc2c1 [Compound 524]
% Inhibition [3, 4]: 30.81% | % Inhibition ([1]; concentration screened 100 uM): 99.57%

O=[N+]([O-])c1cc([N+](=O)[O-])c2[nH]c(CCCCCC[n+]3cccc4ccccc43)cc2c1 [Compound 417]
% Inhibition [3, 4]: 14.59% | % Inhibition ([1]; concentration screened 10 uM): 7.80%

O=C(c1ccccc1)c1ccc2[nH]c(CCCC[n+]3ccccc3)cc2c1 [Compound 355]
% Inhibition ([3]; compound at 0.1 mM (Table 314)): 3.31% | % Inhibition [3, 4]: 2.08% | % Inhibition ([1]; concentration screened 10 uM): 5.78%

c1ccc(C(c2ccccc2)(c2ccccc2)c2ccc3[nH]c(CCC[n+]4cccc5ccccc54)cc3c2)cc1 [Compound 444]
% Inhibition ([3]; compound at 0.1 mM (Table 314)): 8.55% | % Inhibition ([1]; concentration screened 10 uM): 5.85%

c1ccc(Oc2ccc3[nH]c(CCCCC[n+]4ccc5ccccc5c4)cc3c2)cc1 [Compound 566]
% Inhibition [3, 4]: 29.72% | % Inhibition ([1]; concentration screened 100 uM): 98.21%

Fc1cc(F)c2[nH]c(CCCCCC[n+]3ccc4ccccc4c3)cc2c1 [Compound 519]
% Inhibition [3, 4]: 16.27% | % Inhibition ([1]; concentration screened 10 uM): 11.35%

CC(C)c1ccc2[nH]c(CCCCCCCC[n+]3ccc4ccccc4c3)cc2c1 [Compound 539]
% Inhibition [3, 4]: 16.80% | % Inhibition ([1]; concentration screened 10 uM): 4.67%

O=[N+]([O-])c1ccc2[nH]c(CCCCCC[n+]3ccc4ccccc4c3)cc2c1 [Compound 549]
% Inhibition [3, 4]: 14.08% | % Inhibition ([1]; concentration screened 10 uM): 3.13%

CC(=O)c1ccc2[nH]c(CCCC[n+]3ccccc3)cc2c1 [Compound 367]
% Inhibition [3, 4]: 9.72% | % Inhibition ([1]; concentration screened 10 uM): 5.64% and 5.22%

CC(=O)c1ccc2[nH]c(CCCCC[n+]3cccc4ccccc43)cc2c1 [Compound 476]
% Inhibition [3, 4]: 17.49% | % Inhibition ([1]; concentration screened 10 uM): 11.14%

c1ccc2c[n+](CCCCCCCCc3cc4ccccc4[nH]3)ccc2c1 [Compound 503]
% Inhibition [3, 4]: 37.04% | % Inhibition ([1]; concentration screened 10 uM): 7.82%

O=[N+]([O-])c1ccc2[nH]c(CCCCCCC[n+]3ccc4ccccc4c3)cc2c1 [Compound 550]
% Inhibition [3, 4]: 28.18% | % Inhibition ([1]; concentration screened 10 uM): 4.40%

CN(C)c1ccc(C(=O)OCCCCc2cc3cc(C(=O)c4ccccc4)ccc3[nH]2)cc1 [Compound 645]
% Inhibition [3, 4]: 4.31% | % Inhibition ([1]; concentration screened 100 uM): 9.23%

O=C(OCCCCCCCCc1cc2cc(Oc3ccccc3)ccc2[nH]1)C(c1ccccc1)c1ccccc1 [Compound 659]
% Inhibition [3, 4]: 25.47% | % Inhibition ([1]; concentration screened 100 uM): 20.41%

COc1ccc2[nH]c(CCCCCCCC[n+]3ccc4ccccc4c3)cc2c1 [Compound 593]
% Inhibition [3, 4]: 60.19% | % Inhibition ([1]; concentration screened 100 uM): 100.00%

COC(=O)c1ccc2c(ccn2CCCCCCCCC[n+]2ccccc2)c1 [Compound 166]
% Inhibition [3, 4]: 87.68% | % Inhibition ([1]; concentration screened 10 uM): 21.66%

Cc1ccc2[nH]c(CCCC[n+]3cccc4ccccc43)cc2c1 [Compound 403]
% Inhibition [3, 4]: 5.07% | % Inhibition ([1]; concentration screened 10 uM): 4.87%

CC(=O)c1ccc2[nH]c(CCCCCC[n+]3ccc4ccccc4c3)cc2c1 [Compound 585]
% Inhibition [3, 4]: 17.43% | % Inhibition ([1]; concentration screened 10 uM): 2.09%

CC(=O)c1ccc2[nH]c(CCCCCCCOC(=O)c3cccnc3)cc2c1 [Compound 673]
% Inhibition [3, 4]: 1.81% | % Inhibition ([1]; concentration screened 10 uM): 1.50%

O=[N+]([O-])c1cc([N+](=O)[O-])c2[nH]c(CCCC[n+]3cccc4ccccc43)cc2c1 [Compound 415]
% Inhibition [3, 4]: 7.72% | % Inhibition ([1]; concentration screened 10 uM): 1.95%

Fc1ccc2[nH]c(CCCCC[n+]3ccccc3)cc2c1 [Compound 344]
% Inhibition [3, 4]: 4.58% | % Inhibition ([1]; concentration screened 10 uM): 8.08%

FC(F)(F)c1ccc2[nH]c(CCCC[n+]3ccccc3)cc2c1 [Compound 361]
% Inhibition ([3]; compound at 0.1 mM (Table 314)): 16.08% | % Inhibition ([1]; concentration screened 10 uM): 5.57%

CC(C)c1ccc2[nH]c(CCCCOC(=O)C(c3ccccc3)c3ccccc3)cc2c1 [Compound 663]
% Inhibition [3, 4]: 15.43% | % Inhibition ([1]; concentration screened 100 uM): 44.28%

c1ccc(Oc2ccc3[nH]c(CCCCC[n+]4cccc5ccccc54)cc3c2)cc1 [Compound 458]
% Inhibition [3, 4]: 15.72% | % Inhibition ([1]; concentration screened 10 uM): 22.77%

c1ccc(C(c2ccccc2)(c2ccccc2)c2ccc3[nH]c(CCCC[n+]4cccc5ccccc54)cc3c2)cc1 [Compound 445]
% Inhibition [3, 4]: 5.43% | % Inhibition ([1]; concentration screened 10 uM): 11.21%

O=[N+]([O-])c1cc([N+](=O)[O-])c2[nH]c(CCC[n+]3ccccc3)cc2c1 [Compound 306]
% Inhibition [3, 4]: 33.93% | % Inhibition ([1]; concentration screened 10 uM): 4.32%

COC(=O)c1ccc2[nH]c(CCCCCCCC[n+]3cccc4ccccc43)cc2c1 [Compound 491]
% Inhibition [3, 4]: 8.24% | % Inhibition ([1]; concentration screened 10 uM): 11.14%

CCCCc1ccc2[nH]c(CCCCCC[n+]3ccc4ccccc4c3)cc2c1 [Compound 531]
% Inhibition [3, 4]: 36.55% | % Inhibition ([1]; concentration screened 10 uM): 8.77%

O=[N+]([O-])c1ccc2[nH]c(CCCCCCCC[n+]3cccc4ccccc43)cc2c1 [Compound 443]
% Inhibition [3, 4]: 5.51% | % Inhibition ([1]; concentration screened 10 uM): 7.66%

O=C(c1ccccc1)c1ccc2[nH]c(CCCCC[n+]3cccc4ccccc43)cc2c1 [Compound 464]
% Inhibition [3, 4]: 13.50% | % Inhibition ([1]; concentration screened 10 uM): 35.45%

O=C(c1ccccc1)c1ccc2[nH]c(CCCCOC(=O)c3ccccc3-c3ccccc3)cc2c1 [Compound 648]
% Inhibition [3, 4]: 5.82% | % Inhibition ([1]; concentration screened 100 uM): 14.57%

CCCCc1ccc2[nH]c(CCCCCC[n+]3cccc4ccccc43)cc2c1 [Compound 423]
% Inhibition [3, 4]: 12.09% | % Inhibition ([1]; concentration screened 10 uM): 16.85%
